These results are taken from PMC2789237 (Analytical Biochemistry, 2010).

Data set [1] concerns the target T1, pteridine reductase 1 (TbPTR1) (Trypanosoma brucei, UniProt O76290).
T1 construct: gene PTR1; N-terminal hexahistidine-tagged protein
T1 sequence (O76290 1-268): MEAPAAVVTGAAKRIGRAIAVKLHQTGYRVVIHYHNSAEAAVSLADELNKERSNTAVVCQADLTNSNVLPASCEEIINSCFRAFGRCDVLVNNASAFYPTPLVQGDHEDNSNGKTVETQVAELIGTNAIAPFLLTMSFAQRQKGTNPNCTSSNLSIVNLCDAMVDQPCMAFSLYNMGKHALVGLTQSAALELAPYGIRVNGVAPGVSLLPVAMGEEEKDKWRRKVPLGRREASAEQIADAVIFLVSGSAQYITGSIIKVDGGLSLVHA
The experiment in a line: cocrystal structure of ternary complex with DDD00066641. It counts as binding.

Data set [2] addresses T1, pteridine reductase 1 (TbPTR1). Briefly: cocrystal structure of ternary complex; cyt c-coupled enzyme inhibition assay. It counts as biochemical.
Substrate in data set [3]: C[C@H](O)[C@H](O)C1=Nc2c(nc(N)[nH]c2=O)NC1
The experiment in a line: HPLC enzyme kinetics (Km app), with substrate inhibition. It is filed as biochemical, Trypanosoma brucei. To be noted: NADPH.

Substrate in data set [4]: NC(=O)C1=CN([C@@H]2O[C@H](COP(=O)(O)OP(=O)(O)OC[C@H]3O[C@@H](n4cnc5c(N)ncnc54)[C@H](OP(=O)(O)O)[C@@H]3O)[C@@H](O)[C@H]2O)C=CC1
The experiment in a line: HPLC enzyme kinetics (Km app, data not shown). It is filed as biochemical, Trypanosoma brucei. To be noted: varied: cofactor.

`NC(=O)c1ccc[n+]([C@@H]2O[C@H](COP(=O)(O)OP(=O)(O)OC[C@H]3O[C@@H](n4cnc5c(N)ncnc54)[C@H](OP(=O)(O)O)[C@@H]3O)[C@@H](O)[C@H]2O)c1` [NADP+]: the “cocrystal structure of ternary complex with DDD00066641” value in data set [1] was “The structure of the ternary complex of TbPTR1 with this ligand and the cofactor NADP^+ was obtained by cocrystallization”.
A word on the Ki: it is a measure of affinity in units of concentration, obtained from inhibition or displacement. Lower therefore signals a stronger hold on the target. With `Cc1ccc(-c2ccc3nc(N)nc(N)c3c2)cc1` [DDD00066641, 6-p-tolylquinazoline-2,4-diamine], the Ki in data set [2] amounted to 3 ± 0.8 nM.

B1: pteridine reductase 1 (TbPTR1) (Trypanosoma brucei brucei) (protein)
chain: MEAPAAVVTGAAKRIGRAIAVKLHQTGYRVVIHYHNSAEAAVSLADELNKERSNTAVVCQADLTNSNVLPASCEEIINSCFRAFGRCDVLVNNASAFYPTPLVQGDHEDNSNGKTVETQVAELIGTNAIAPFLLTMSFAQRQKGTNPNCTSSNLSIVNLCDAMVDQPCMAFSLYNMGKHALVGLTQSAALELAPYGIRVNGVAPGVSLLPVAMGEEEKDKWRRKVPLGRREASAEQIADAVIFLVSGSAQYITGSIIKVDGGLSLVHA
notes: N-terminal hexahistidine-tagged protein
What is called Km is the substrate concentration at which the rate is half of its maximum. As to B1, the figures for the Km in data set [3] and in data set [4] were 0.025 ± 0.0067 µM and 1.6 ± 0.1 µM, respectively.
